Experimental data published in patent publication US20200001109A1, “Methods For Treating Hyperbilirubinemia With Stannsoporfin And Phototherapy” (INFACARE PHARMACEUTICAL CORPORATION, priority 2016, published 2020).

What was measured:
[1] = system: total serum bilirubin (TSB); details: 3.0 and 4.5 mg/kg stannsoporfin patients receiving phototherapy; previous study (placebo 41%); cited from earlier work
[2] = Phase 2b trial of stannsoporfin with phototherapy: safety (adverse events); format: in vivo, human infants
Method: (§1) A Phase 2b multicenter, double-blind, randomized, placebo-controlled parallel group safety and efficacy trial of two doses of stannsoporfin administered as a single intramuscular injection in combination with phototherapy in term and near-term infants has been proposed and performed.
(§2) Infants will be randomized to one of three treatment arms: placebo, 3.0 mg/kg, or 4.5 mg/kg of stannsoporfin in a 1:1:1 ratio. Infants aged 0 to 48 hours (at the time the qualifying TSB is drawn) with ABO or Rh incompatibility who are DAT-positive, or age 0 to 72 hours (at the time the qualifying TSB is drawn) with G6PD deficiency, confirmed by a documented blood test, who require the initiation of phototherapy are eligible for the study. In addition, patients aged 0 to 48 hours (at the time the qualifying TSB is drawn) with ABO or Rh incompatibility who are DAT negative (or status unknown), and have an increased reticulocyte count (>6%), and require the initiation of phototherapy are eligible for the study.
Safety outcome measures are: Incidence of adverse events and serious adverse events, changes in vital sign measurements, results of physical exam (PE) including eye and hearing assessment, results of neurologic exam, ECG assessments, clinical laboratory tests including hematology, serum chemistries, liver function and renal function tests. Adverse events and SAEs will be summarized for each treatment group and overall for both stannsoporfin treatment groups with the proportion of patients reporting each event. Actual values and change from baseline in vital signs, physical and neurologic exam and laboratory test parameters will be summarized for each treatment group and overall for both stannsoporfin treatment groups with descriptive statistics at each assessment obtained. Changes in ECG findings, ophthalmologic and audiology assessments will be summarized for each treatment group and overall for both stannsoporfin treatment groups with descriptive statistics at each assessment obtained, including changes from baseline to Day 30 (early term). Efficacy and safety parameters will also be analyzed according to DAT status.
The results from a Phase 2b multicenter, double blind, randomized, placebo controlled parallel group safety and efficacy trial of two doses of stannsoporfin administered as a single intramuscular (IM) injection in combination with phototherapy (PT) in term and near-term infants, all with an ABO/Rh incompatibility were highly statistically significant and positive. Ninety-one neonates (aged 24 hours of age, range 7 to 54 hours), all at medium to high risk of severe hyperbilirubinemia, all with an ABO/Rh incompatibility, birth weights of 2580 to 4930 grams, and gestational age of 35 to 42 weeks, were randomized to one of three treatment arms: placebo (saline), 3.0 mg/kg stannsoporfin, or 4.5 mg/kg of stannsoporfin. All were included in the intent-to-treat-primary efficacy and safety analyses.
TEAEs occurred in 59% of Stannsoporfin treated infants vs 52% among placebo. Serious TEAEs occurred in 15% of Stannsoporfin treated infants vs 20% of placebo. TEAEs related to phototherapy (eg skin rash, erythema) occurred in 16% of Stannsoporfin treated infants vs 10% of placebo.

[3] = system: total serum bilirubin (TSB); assay: Phase 2b randomized, placebo-controlled trial of single IM stannsoporfin with phototherapy: efficacy on TSB; format: in vivo, human infants; details: for Rebound Hyperbilirubinemia N: TSB at or above PT threshold after discontinuation of initial PT; for LS Mean Difference vs Placebo in TSB at 48 hrs: difference in TSB percentage change from baseline vs placebo plus phototherapy; for PT Failure N: exchange transfusion, IVIG use, readmission for hyperbilirubinemia or re-started PT; for Time at which TSB crosses at or below the PT threshold, Median: plus phototherapy; for LS Mean Percentage Change in TSB at 48 hrs: single IM injection plus phototherapy, change from baseline, LOCF
Method: as §1, §2
Inclusion Criteria: 1) Term and near-term infants ≥35 and ≤43 weeks gestational age (GA), age 0-48 hours (at the time the qualifying TSB is drawn) with ABO or Rh incompatibility (anti C, c, D, E or e) who are DAT-positive, or age 0-72 hours (at the time the qualifying TSB is drawn) with G6PD deficiency as confirmed by a documented blood test; OR 2) Term and near-term infants ≥35 and ≤43 weeks GA, age 0-48 hours (at the time the qualifying TSB is drawn) with ABO or Rh incompatibility (anti C, c, D, E or e) who are DAT-negative (or status unknown) and have an increased reticulocyte count (>6%); parental or guardian written consent; birth weight ≥2500 grams; TSB at or above the age-specific threshold for initiating phototherapy per the AAP guidelines (see FIG. 1 and Tables 1, 2 and 3); and parents agree to observe light precautions for 10 days post treatment
Once the patient's TSB is at or above the age-specific threshold for phototherapy and all inclusion and no exclusion criteria are met (including laboratory criteria), patients will be immediately randomized to receive a single intramuscular dose of either placebo (saline), 3.0 mg/kg of stannsoporfin or 4.5 mg/kg of stannsoporfin.
Criteria for discontinuing phototherapy: The criteria for discontinuing phototherapy will be standardized. If a TSB measurement is obtained during phototherapy treatment that is below the age-specific threshold for phototherapy (FIG. 1), phototherapy should be discontinued. In order to check for rebound hyperbilirubinemia, a TSB level is to be obtained between 6 and 12 hours after phototherapy is discontinued (must be done before discharge). If the patient remains in the hospital and continues on phototherapy past 48 hours further assessments and procedures are to be conducted as listed in the Time and Event Table (Table 8).
Initiation of Phototherapy: Once the TSB result has been received, the administration of study drug and initiation of phototherapy should occur as soon as practical. phototherapy should be started within a window of no more than ±30 minutes from IMP administration.
Phototherapy must be narrow spectrum blue light with a single overhead unit. The height of the phototherapy unit should be adjusted to obtain an irradiance of 30 microwatts/cm2/nm at the level of the patient's abdomen. Irradiance should be measured and adjusted to maintain 30 microwatts/cm2/nm, until phototherapy is discontinued. The recordings are to be documented in the eCRF.
Monitoring during phototherapy: It is essential to protect the patient's eyes with opaque eye patches. These must be checked periodically to ensure complete eye coverage during phototherapy. Use of biliblankets or home phototherapy is not permitted. TSB levels will be done at 6, 12, 18, 24, 30, 36±2 h, and 48 hours±6 h after study drug administration (Table 8). If the patient continues on phototherapy past 48 hours, the TSB will be obtained every 12±6 h. […]

[4] = all treatment arms of the trial
[5] = Stannsoporfin 3.0 mg/kg (N = 30)
[6] = Stannsoporfin 4.5 mg/kg (N = 31)
[7] = Stannsoporfin Combined (N = 61)
[8] = both high dose (4.5 mg/kg) and low dose (3.0 mg/kg), compared with phototherapy and placebo

Structure (SMILES): CCC1=C(C)c2cc3[n-]c(cc4[n-]c(cc5nc(cc1n2)C(C)=C5CC)c(C)c4CCC(=O)O)c(CCC(=O)O)c3C.[Cl-].[Cl-].[Sn+4] [Stannsoporfin, tin-mesoporphyrin IX dichloride]
- increase in TSB at 48 hours [1]: 15%
- Serious TEAEs, proportion of infants ([2]; Stannsoporfin treated infants (both doses) plus phototherapy, vs 20% of placebo): 15%
- treatment-emergent adverse events (TEAEs), proportion of infants ([2]; Stannsoporfin treated infants (both doses) plus phototherapy, vs 52% among placebo): 59%
- TEAEs related to phototherapy (eg skin rash, erythema), proportion of infants ([2]; Stannsoporfin treated infants (both doses), vs 10% of placebo): 16%
- discontinuation of the study due to an adverse event [2, 4]: no infant discontinued the study due to an adverse event
- infant deaths [2, 4]: no infant deaths
- safety signals ([2]; either dose (3.0 or 4.5 mg/kg)): no safety signals
- PT Failure (%) [3, 5]: (10%)
- PT Failure Odds Ratio vs Placebo [3, 5]: 0.31
- Rebound Hyperbilirubinemia (%) [3, 5]: (9%)
- Rebound Hyperbilirubinemia N [3, 5]: 0/30
- LS Mean Difference vs Placebo in TSB at 48 hrs [3, 5]: −31.69
- PT Failure N [3, 5]: 3/30
- Time at which TSB crosses at or below the PT threshold, Median [3, 5]: 11.8 h
- LS Mean Percentage Change in TSB at 48 hrs [3, 5]: −9.5%
- PT Failure (%) [3, 6]: (3%)
- PT Failure Odds Ratio vs Placebo [3, 6]: 0.09
- Rebound Hyperbilirubinemia (%) [3, 6]: (3%)
- Rebound Hyperbilirubinemia N [3, 6]: 1/31
- LS Mean Difference vs Placebo in TSB at 48 hrs [3, 6]: −27.69
- PT Failure N [3, 6]: 1/31
- Time at which TSB crosses at or below the PT threshold, Median [3, 6]: 10.6 h
- LS Mean Percentage Change in TSB at 48 hrs [3, 6]: −5.5%
- PT Failure (%) [3, 7]: (7%)
- PT Failure Odds Ratio vs Placebo [3, 7]: 0.20
- Rebound Hyperbilirubinemia (%) [3, 7]: (2%)
- Rebound Hyperbilirubinemia N [3, 7]: 1/61
- LS Mean Difference vs Placebo in TSB at 48 hrs [3, 7]: −29.69
- PT Failure N [3, 7]: 4/61
- Time at which TSB crosses at or below the PT threshold, Median [3, 7]: 11.6 h
- LS Mean Percentage Change in TSB at 48 hrs [3, 7]: −7.4%
- effect on percentage change in total serum bilirubin (TSB) at 24 hours after drug administration [3, 8]: highly statistically significant (P<0.0001) positive effect
- effect on percentage change in total serum bilirubin (TSB) at 48 hours after drug administration [3, 8]: highly significant (P<0.0001) positive effect
- effect on percentage change in total serum bilirubin (TSB) at 48 hours after drug administration ([3]; both high dose (4.5 mg/kg) and low dose (3.0 mg/kg), compared with phototherapy and placebo, listed as stannsoporfin): statistically significant positive effect
